# Source: patent publication US8258311B2, “Human protein tyrosine phosphatase inhibitors and methods of use” (Aerpio Therapeutics Inc., priority 2006, dated 2012)
# Tests used:
# [1] = target: T1, PTP1B (Homo sapiens, UniProt P18031); assay: PTP1B inhibition (IC50); format: biochemical
# T1 sequence (P18031 1-435): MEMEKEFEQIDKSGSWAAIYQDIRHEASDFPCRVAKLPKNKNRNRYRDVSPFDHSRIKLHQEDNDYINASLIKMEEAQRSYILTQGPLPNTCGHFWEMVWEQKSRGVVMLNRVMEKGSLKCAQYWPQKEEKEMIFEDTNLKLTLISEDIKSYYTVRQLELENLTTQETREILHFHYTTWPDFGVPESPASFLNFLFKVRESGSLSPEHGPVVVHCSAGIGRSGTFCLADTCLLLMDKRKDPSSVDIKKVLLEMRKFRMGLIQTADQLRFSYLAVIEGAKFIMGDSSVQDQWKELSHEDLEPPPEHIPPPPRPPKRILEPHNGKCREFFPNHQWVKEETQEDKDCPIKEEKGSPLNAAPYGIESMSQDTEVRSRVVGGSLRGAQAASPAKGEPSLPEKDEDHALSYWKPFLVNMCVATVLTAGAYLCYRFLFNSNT
# [2] = target: HPTPβ (Homo sapiens, UniProt P23467); assay: HPTPβ inhibition (IC50); format: biochemical
# Sequence of HPTPβ (P23467 23-1997): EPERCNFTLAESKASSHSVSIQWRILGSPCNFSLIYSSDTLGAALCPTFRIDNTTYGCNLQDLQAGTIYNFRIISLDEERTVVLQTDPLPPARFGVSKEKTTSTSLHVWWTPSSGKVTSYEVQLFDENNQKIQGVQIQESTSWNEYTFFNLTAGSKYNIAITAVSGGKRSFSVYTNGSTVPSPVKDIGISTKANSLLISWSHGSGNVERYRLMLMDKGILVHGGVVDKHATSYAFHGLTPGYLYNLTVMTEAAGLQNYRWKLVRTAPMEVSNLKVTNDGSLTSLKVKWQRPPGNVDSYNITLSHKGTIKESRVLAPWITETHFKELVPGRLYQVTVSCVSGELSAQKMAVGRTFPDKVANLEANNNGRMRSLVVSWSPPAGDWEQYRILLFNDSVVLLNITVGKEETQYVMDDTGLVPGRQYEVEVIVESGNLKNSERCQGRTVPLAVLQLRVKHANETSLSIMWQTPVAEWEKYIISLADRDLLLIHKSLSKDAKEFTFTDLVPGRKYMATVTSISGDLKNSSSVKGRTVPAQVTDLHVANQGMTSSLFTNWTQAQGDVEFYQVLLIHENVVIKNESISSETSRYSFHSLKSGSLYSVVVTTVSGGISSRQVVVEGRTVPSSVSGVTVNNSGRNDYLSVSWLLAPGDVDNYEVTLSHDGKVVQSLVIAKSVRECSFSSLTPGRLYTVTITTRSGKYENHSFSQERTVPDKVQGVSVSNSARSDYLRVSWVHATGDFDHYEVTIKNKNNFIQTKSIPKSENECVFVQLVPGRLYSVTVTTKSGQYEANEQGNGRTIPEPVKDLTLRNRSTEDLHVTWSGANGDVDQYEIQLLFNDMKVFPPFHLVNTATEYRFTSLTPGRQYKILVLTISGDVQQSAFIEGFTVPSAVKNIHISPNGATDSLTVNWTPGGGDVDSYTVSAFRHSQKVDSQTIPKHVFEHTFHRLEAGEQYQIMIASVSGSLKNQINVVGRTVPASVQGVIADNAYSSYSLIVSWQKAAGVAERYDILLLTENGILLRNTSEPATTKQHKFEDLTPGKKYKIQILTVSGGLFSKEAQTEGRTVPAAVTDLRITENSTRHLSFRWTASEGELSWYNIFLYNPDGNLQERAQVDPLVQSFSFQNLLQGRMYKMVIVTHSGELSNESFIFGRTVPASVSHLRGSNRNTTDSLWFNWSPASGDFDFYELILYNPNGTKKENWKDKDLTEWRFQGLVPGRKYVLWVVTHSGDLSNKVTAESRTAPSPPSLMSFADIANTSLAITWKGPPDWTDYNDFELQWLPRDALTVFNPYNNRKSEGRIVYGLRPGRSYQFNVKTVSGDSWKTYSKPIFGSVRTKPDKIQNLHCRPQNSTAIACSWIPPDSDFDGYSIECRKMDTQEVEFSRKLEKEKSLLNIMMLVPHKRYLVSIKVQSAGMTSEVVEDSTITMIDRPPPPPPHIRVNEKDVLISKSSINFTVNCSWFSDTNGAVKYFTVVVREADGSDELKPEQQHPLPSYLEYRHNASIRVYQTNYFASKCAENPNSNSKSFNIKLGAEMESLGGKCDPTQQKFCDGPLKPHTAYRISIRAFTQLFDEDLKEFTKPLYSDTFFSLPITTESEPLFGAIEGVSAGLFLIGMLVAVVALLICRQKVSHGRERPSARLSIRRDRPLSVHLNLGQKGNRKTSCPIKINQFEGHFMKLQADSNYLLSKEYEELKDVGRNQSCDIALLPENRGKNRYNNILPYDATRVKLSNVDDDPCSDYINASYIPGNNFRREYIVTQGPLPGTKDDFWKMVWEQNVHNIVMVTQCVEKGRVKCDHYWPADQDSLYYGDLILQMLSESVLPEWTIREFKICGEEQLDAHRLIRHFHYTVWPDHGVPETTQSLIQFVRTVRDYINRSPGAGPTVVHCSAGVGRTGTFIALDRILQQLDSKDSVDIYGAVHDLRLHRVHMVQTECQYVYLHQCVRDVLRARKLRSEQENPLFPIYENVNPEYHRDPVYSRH
Compound,IC50 [1] [nM],IC50 [2] [nM]
CC(C)(C)OC(=O)N[C@@H](Cc1ccc(NS(=O)(=O)O)cc1)c1nc(-c2cccc(C(F)(F)F)c2)cs1 [4-((S)-2-(tert-Butoxycarbonylamino)-2-(4-(3-(trifluoromethyl)phenyl)thiazol-2-yl)ethyl)-phenyl sulfamic acid],11800,253
(S)-4-(2-(tert-Butoxycarbonyl)-2-(4-(2-(2-methoxy-2-oxoyethyl amino)-2-oxoethyl)thiazole-2-yl)ethyl)phenylsulfamic acid,50000,132
CCc1csc([C@H](Cc2ccc(NS(=O)(=O)O)cc2)NC(=O)CNC(=O)OC)n1 [(S)-4-{2-(4-Ethylthiazol-2-yl)-2-[2-(methoxycarbonylamino)acetamido]ethyl}phenylsulfamic acid],5260,20
CC(C)(C)OC(=O)N[C@@H](Cc1ccc(NS(=O)(=O)O)cc1)c1nc(CO)cs1 [(S)-4-(2-(tert-Butoxycarbonylamino)-2-(4-(hydroxymethyl)thiazol-2-yl)ethyl)phenylsulfamic acid],31600,644
CCCc1csc([C@H](Cc2ccc(NS(=O)(=O)O)cc2)NC(=O)OC(C)(C)C)n1 [(S)-4-(2-(tert-Butoxycarbonylamino)-2-(4-propylthiazol-2-yl)ethyl)phenyl sulfamic acid],35600,40
CCc1csc([C@H](Cc2ccc(NS(=O)(=O)O)cc2)NC(=O)[C@@H](Cc2ccccc2)NC(=O)OC(C)(C)C)n1 [4-{(S)-2-[(R)-2-(tert-butoxycarbonylamino)-3-phenylpropanamido]-2-(4-ethylthiazol-2-yl)ethyl}phenylsulfamic acid],7120,4
"CC(C)(C)C(=O)N[C@@H](Cc1ccc(NS(=O)(=O)O)cc1)c1nc(-c2ccc3c(c2)OCCO3)cs1 [4-((S)-2-(4-(2,3-Dihydrobenzo[b][1,4]dioxin-6-yl)thiazol-2-yl)-2-pivalamidoethyl)phenylsulfamic acid]",38300,138
COc1cccc(Cc2csc([C@H](Cc3ccc(NS(=O)(=O)O)cc3)NC(=O)C(C)(C)C)n2)c1 [(S)-4-(2-(4-(3-Methoxybenzyl)thiazol-2-yl)-2-pivalamidoethyl)phenylsulfamic acid],50000,132
CC(C)(C)OC(=O)N[C@@H](Cc1ccccc1)C(=O)N[C@@H](Cc1ccc(NS(=O)(=O)O)cc1)c1csc(-c2ccccc2)n1 [4-{(S)-2-(S)-2-(tert-Butoxycarbonylamino)-3-phenylpropanamido-2-(2-phenylthiazol-4-yl)}phenylsulfamic acid],905,–
CCOC(=O)Cc1csc([C@H](Cc2ccc(NS(=O)(=O)O)cc2)NC(=O)OC(C)(C)C)n1,50000,167
CC(C)(C)OC(=O)N[C@@H](Cc1ccc(NS(=O)(=O)O)cc1)c1nc(-c2ccccc2)cs1 [[1-(S)-(Phenylthiazol-2-yl)-2-(4-sulfoaminophenyl)ethyl]-carbamic acid tert-butyl ester],33000,49
COC(=O)N[C@@H](Cc1ccccc1)C(=O)N[C@@H](Cc1ccc(NS(=O)(=O)O)cc1)c1csc(-c2ccco2)n1,5000,–
Cc1csc([C@H](Cc2ccc(NS(=O)(=O)O)cc2)NC(=O)C(C)(C)C)n1 [(S)-4-(2-(4-Methylthiazol-2-yl)-2-pivalamidoethyl)phenyl-sulfamic acid],50000,–

# Further compounds by falling IC50 [1], results first:
IC50 [1] [nM],IC50 [2] [nM],Compound
1780,–,COC(=O)N[C@@H](Cc1ccccc1)C(=O)N[C@@H](Cc1ccc(NS(=O)(=O)O)cc1)c1nc(C2CCCCC2)cs1 [4-{(S)-2-(4-Cyclohexylthiazol-2-yl)-2-[(S)-2-(methoxycarbonylamino)-3-phenyl-propanamido]ethyl}phenylsulfamic acid]
1520,0.3,CC(=O)N[C@@H](Cc1ccccc1)C(=O)N[C@@H](Cc1ccc(NS(=O)(=O)O)cc1)c1nc(C(C)(C)C)cs1 [4-[(S)-2-((S)-2-Acetamido-3-phenylpropanamido)-2-(4-tert-butylthiazol-2-yl)ethyl]phenylsulfamic acid]
1090,–,COC(=O)N[C@@H](Cc1ccccc1)C(=O)N[C@@H](Cc1ccc(NS(=O)(=O)O)cc1)c1csc(-c2sccc2C)n1 [4-{(S)-2-[(S)-2-(Methoxycarbonylamino)-3-phenylpropanamido]-2-[2-(3-methylthiophen-2-yl)thiazol-4-yl]ethyl}phenylsulfamic acid]
1030,3,CCc1csc([C@H](Cc2ccc(NS(=O)(=O)O)cc2)NC(=O)[C@@H](NC(=O)OC)C(C)C)n1 [4-{(S)-2-(4-Ethylthiazol-2-yl)-2-[(S)-2-(methoxycarbonylamino)-3-methylbutanamido]-ethyl}phenylsulfamic acid]
1020,6,COC(=O)N[C@@H](Cc1ccccc1)C(=O)N[C@@H](Cc1ccc(NS(=O)(=O)O)cc1)c1nccs1 [4-{(S)-2-[(S)-2-(Methoxycarbonylamino)-3-phenylpropanamido]-2-(thiazol-2-yl)ethyl}phenylsulfamic acid]
990,–,COC(=O)N[C@@H](Cc1ccccc1)C(=O)N[C@@H](Cc1ccc(NS(=O)(=O)O)cc1)c1nc(-c2cccs2)cs1 [4-{(S)-2-[(S)-2-(Methoxycarbonylamino)-3-phenylpropanamido]-2-[4-(thiophen-2-yl)thiazol-2-yl]ethyl}phenylsulfamic acid]
950,–,COC(=O)N[C@@H](Cc1ccccc1)C(=O)N[C@@H](Cc1ccc(NS(=O)(=O)O)cc1)c1csc(-c2sccc2Cl)n1 [4-{(S)-2-[2-(3-Chlorothiophen-2-yl)thiazol-4-yl]-2-[(S)-2-(methoxycarbonylamino)-3-phenylpropanamido]ethyl}phenylsulfamic acid]
810,0.3,COC(=O)N[C@@H](Cc1ccccc1)C(=O)N[C@@H](Cc1ccc(NS(=O)(=O)O)cc1)c1ncc(-c2ccccc2)s1 [4-{(S)-2-[(S)-2-(Methoxycarbonylamino)-3-phenylpropanamido]-2-(5-phenylthiazol-2-yl)ethyl}phenylsulfamic acid]
640,1,COCc1csc([C@H](Cc2ccc(NS(=O)(=O)O)cc2)NC(=O)[C@H](Cc2ccccc2)NC(=O)OC)n1 [4-{(S)-2-[(S)-2-(Methoxycarbonylamino)-3-phenylpropanamido]-2-[4-(methoxymethyl)thiazol-2-yl]ethyl}phenylsulfamic acid]
604,–,COC(=O)N[C@@H](Cc1ccccc1)C(=O)N[C@@H](Cc1ccc(NS(=O)(=O)O)cc1)c1csc(-c2cccs2)n1 [4-{(S)-2-[(S)-2-(Methoxycarbonylamino)-3-phenylpropanamido]-2-[2-(thiophen-2-yl)thiazol-4-yl]ethyl}phenylsulfamic acid]
597,–,COC(=O)N[C@@H](Cc1ccccc1)C(=O)N[C@@H](Cc1ccc(NS(=O)(=O)O)cc1)c1nc(-c2ccccc2)cs1 [4-{(S)-2-[(S)-2-(Methoxycarbonylamino)-3-phenylpropanamido]-2-(4-phenylthiazol-2-yl)ethyl}phenylsulfamic acid]
508,–,COC(=O)N[C@@H](Cc1ccccc1)C(=O)N[C@@H](Cc1ccc(NS(=O)(=O)O)cc1)c1csc(-c2ccccc2)n1 [4-{(S)-2-[(S)-2-(Methoxycarbonylamino)-3-phenylpropionamido]-2-(2-phenylthiazole-4-yl)ethyl}phenylsulfamic acid]
490,0.162,CCc1csc([C@H](Cc2ccc(NS(=O)(=O)O)cc2)NC(=O)[C@H](Cc2ccccc2)NC(=O)OC)n1 [4-{(S)-2-(4-Ethylthiazol-2-yl)-2-[(S)-2-(methoxycarbonylamino)-3-phenylpropanamido]ethyl}phenylsulfamic acid]
390,–,CCc1nc([C@H](Cc2ccc(NS(=O)(=O)O)cc2)NC(=O)[C@H](Cc2ccccc2)NC(=O)OC)sc1-c1ccccc1 [4-{(S)-2-(4-Ethyl-5-phenylthiazol-2-yl)-2-[(S)-2-(methoxy-carbonylamino)-3-phenyl-propanamido]ethyl}phenylsulfamic acid]
370,–,COC(=O)N[C@@H](Cc1ccccc1)C(=O)N[C@@H](Cc1ccc(NS(=O)(=O)O)cc1)c1nc(-c2ccc(Cl)s2)cs1 [4-{(S)-2-[4-(5-Chlorothiophen-2-yl)thiazol-2-yl]-2-[(S)-2-(methoxycarbonylamino)-3-phenylpropanamido]ethyl}phenyl-sulfamic acid]
300,0.01,COC(=O)N[C@@H](Cc1ccccc1)C(=O)N[C@@H](Cc1ccc(NS(=O)(=O)O)cc1)c1nc(C2CC2)cs1 [4-{(S)-2-(4-Cyclopropylthiazol-2-yl)-2-[(S)-2-(methoxy-carbonylamino)-3-phenylpropanamido]ethyl}phenylsulfamic acid]
299,–,4-((S)-2-(4-Ethylthiazol-2-yl)-2-{(S)-2-[2-(methoxycarbonylamino)-acetamido]-3-phenylpropanamido}ethyl)phenylsulfamic acid
120,0.08,"COC(=O)N[C@@H](Cc1ccccc1)C(=O)N[C@@H](Cc1ccc(NS(=O)(=O)O)cc1)c1nc(CCC(F)(F)F)cs1 [4-{(S)-2-[(S)-2-(Methoxycarbonylamino)-3-phenylpropanamido)-2-[4-(3,3,3-trifluoropropyl)thiazol-2-yl]ethyl}phenylsulfamic acid]"
70,0.2,CCOC(=O)c1csc([C@H](Cc2ccc(NS(=O)(=O)O)cc2)NC(=O)[C@H](Cc2ccccc2)NC(=O)OC)n1 [4-{(S)-2-(4-(Ethoxycarbonyl)thiazol-2-yl)-2-[(S)-2-(methoxy-carbonylamino)-3-phenylpropanamido]ethyl}phenylsulfamic acid]
